From PubChem BioAssay AID463203 (Broad Institute, 2010)
Active and inactive are the calls of the source.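 The calls were made as follows: active = more than half of replicate measurements showing over 20% loss of kinase signal relative to plate controls; inconclusive = some but at most half of replicates over 20% loss; inactive = no replicate over 20% signal loss.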

Molecular target: Glycogen synthase kinase-3 alpha (Homo sapiens) (UniProt P49840)
Assay: concentration-response blocking of human GSK3A – biochemical, luminescence, cell-free homogeneous, retest, dose response (AID 463203)
Settings: GSK-3 alpha enzyme, ADP-Glo luminescence, 60 min

Sequence of Glycogen synthase kinase-3 alpha (Homo sapiens) (P49840 whole entry, looked up): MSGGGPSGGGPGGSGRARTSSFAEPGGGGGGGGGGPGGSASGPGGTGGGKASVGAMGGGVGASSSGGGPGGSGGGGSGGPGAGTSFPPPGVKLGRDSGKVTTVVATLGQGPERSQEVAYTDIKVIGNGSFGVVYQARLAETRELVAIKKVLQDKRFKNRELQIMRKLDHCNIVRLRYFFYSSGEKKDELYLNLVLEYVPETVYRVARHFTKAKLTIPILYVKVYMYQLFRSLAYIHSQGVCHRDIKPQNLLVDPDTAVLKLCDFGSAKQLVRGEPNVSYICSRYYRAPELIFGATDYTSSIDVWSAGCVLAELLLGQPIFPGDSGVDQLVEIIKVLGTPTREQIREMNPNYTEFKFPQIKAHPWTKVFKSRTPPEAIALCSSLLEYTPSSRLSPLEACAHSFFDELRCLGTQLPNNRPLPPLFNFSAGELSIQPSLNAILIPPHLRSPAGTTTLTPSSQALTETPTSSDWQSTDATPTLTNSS

| SMILES | AC50 |
| --- | --- |
| O=C(CSc1nnc(-c2ccncc2)s1)Nc1ccccc1 | > 30 µM (inactive) |
| CCOC(=O)c1cc(CC)sc1NC(=O)C1CC1 | > 30 µM (inactive) |
| COC1(OC)N=C(N)C2(C#N)C(c3ccc(C)cc3)C12C#N (stereo unspecified) | > 30 µM (inactive) |
| CC1(C)CC(=O)C(C=NCCc2ccc(O)cc2)=C(O)C1 | > 30 µM (inactive) |
| COc1ccccc1OCCNC(=O)C1CCN(C(C)=O)CC1 | > 30 µM (inactive) |
| CCC(Sc1ccc2nnc(-c3ccc(OC)c(OC)c3)n2n1)C(=O)O (stereo unspecified) | 29.2 µM |
| O=c1c(O[C@@H]2O[C@H](CO)[C@@H](O)[C@H](O)[C@H]2O)c(-c2ccc(O)cc2)oc2cc(O)cc(O)c12 | 30.4 µM |
| Cc1cc(/C=N/Nc2ccc([N+](=O)[O-])cn2)c(C)n1-c1cccc(C(=O)O)c1 | 14.6 µM |
| COc1ccc(-c2cc(=O)c3c(O)cc(O)cc3o2)cc1 | 4.21 µM |
| Cc1ccc(Sc2nc(-c3ccccc3)nnc2C(F)(F)F)cc1 | > 30 µM (inactive) |
| C/C(=C(/CCO)SSCC1CCCO1)N(C=O)Cc1cnc(C)nc1N (stereo unspecified) | > 30 µM (inactive) |
| COc1cc(C2CC(=O)N3CN(Cc4ccccc4)CSC3=C2C#N)ccc1OCc1ccccc1 (stereo unspecified) | > 30 µM (inactive) |
| C[C@H]1CCCC(=O)CCCCCc2cc(O)cc(O)c2C(=O)O1 | 28.3 µM |
| CN(C)C(=O)Oc1ccc2c(c1)O/C(=C\c1cccc([N+](=O)[O-])c1)C2=O | > 30 µM (inactive) |
| NS(=O)(=O)c1cccc(NC(=O)CSc2nnc(-c3ccccc3)o2)c1 | > 30 µM (inactive) |
| COc1ccc(N=c2oc3c(OC)cccc3cc2C(=O)NCc2ccco2)c(OC)c1 | > 30 µM (inactive) |
| Cc1sc2ncnc(NCc3cccs3)c2c1C | > 30 µM (inactive) |
| CN(C)c1ccc(Nc2nc(N)c3ccccc3n2)cc1 | 18.2 µM |
| Cc1ccc(Cn2nc(-c3ccccc3)nc2-c2ccccc2)cc1 | > 30 µM (inactive) |
| COc1ccc2[nH]c(C(=O)O)c(NS(=O)(=O)c3ccc(OC)c(OC)c3)c2c1 | 6.63 µM |
| O=C(Nc1ccsc1C(=O)O)c1ccc(Cl)cc1 | > 30 µM (inactive) |
| Fc1ccc(/C=N/Nc2nc3ccccc3[nH]2)cc1F | > 30 µM (inactive) |
| CCN(CC)CCCN(Cc1cc2cc3c(cc2[nH]c1=O)OCO3)C(=O)Nc1ccccc1OC | > 30 µM (inactive) |
| COC(=O)c1cn(C(=O)c2ccc(Cl)cc2)c2ccccc12 | > 30 µM (inactive) |
| O=C(CSCc1ccccn1)Nc1ccccc1 | > 30 µM (inactive) |
| CCOC(=O)CC1COc2ccccc2N1C(=O)c1ccc(C)cc1 (stereo unspecified) | > 30 µM (inactive) |

| SMILES | AC50 |
| --- | --- |
| COc1cccc(N/C(SC)=C(/C#N)C(N)=O)c1 | 30 µM |
| O=C(c1ccco1)N(Cc1ccc([N+](=O)[O-])cc1)c1ccc(Cl)cc1 | > 30 µM (inactive) |
| Cc1ccc2c(c1)Oc1ccc(NC(=O)CCl)cc1C(=O)N2 | > 30 µM (inactive) |
| CN(C)CCCNS(=O)(=O)c1ccc(-n2nnc3ccccc32)c([N+](=O)[O-])c1 | > 30 µM (inactive) |
| CC(C)OCCCNc1nc2c([nH]1)c(=O)n(C)c(=O)n2C | > 30 µM (inactive) |
| C/C(NCCCn1ccnc1)=C(\C#N)C(N)=O | 19.2 µM |
| COc1ccc(COC(=O)C2=C(C)NC(=O)NC2c2ccccc2F)cc1 (stereo unspecified) | > 30 µM (inactive) |
| CCOC(=O)N1CCC(N2CCN(S(=O)(=O)c3ccc4ccccc4c3)CC2)CC1 | > 30 µM (inactive) |
| CC(=O)Nc1cccc(-c2csc(N)n2)c1 | > 30 µM (inactive) |
| CCSc1ccccc1C(=O)Nc1cccnc1 | > 30 µM (inactive) |
| O=C(NC(=S)Nc1cccc2cnccc12)c1ccccc1 | > 30 µM (inactive) |
| CC(=O)Nc1c(C)ccc2nsnc12 | > 30 µM (inactive) |
| COc1ccc(NC(=O)/C(C#N)=C\C=C\c2ccco2)cc1 | > 30 µM (inactive) |
| Cc1ccc(-c2c3c(nc4sc(C(N)=O)c(N)c24)CCC3)cc1 | 5.39 µM |
| COc1cc(C2C(C#N)=C(N)Oc3n[nH]c(-c4cccnc4)c32)ccc1OCC(N)=O (stereo unspecified) | > 30 µM (inactive) |
| Cc1c(C(=O)N2CCN(c3ccccc3)CC2)oc2c(Cl)cccc12 | > 30 µM (inactive) |
| CC(=O)Nc1ccccc1C | > 30 µM (inactive) |
| Cc1onc(-c2ccccc2)c1C(=O)NCCN1CCOCC1 | > 30 µM (inactive) |
| O=C(N/N=C/c1ccc(O)c(O)c1)C1CC1 | > 30 µM (inactive) |
| COc1cc(-c2nnc(SCc3c(F)cccc3Cl)o2)cc(OC)c1OC | > 30 µM (inactive) |
| COCCCNc1nc2nonc2nc1N1C[C@H]2CC[C@H]1C2 | > 30 µM (inactive) |
| Nc1nc(N)nc(-c2cc(F)ccc2O)n1 | 18.9 µM |
| NC(=O)c1ccsc1NC(=O)COC(=O)Cc1ccsc1 | 28.6 µM |
| CC(=O)c1ccc(N=Nc2c(C)[nH][nH]c2=O)cc1 | 24.5 µM |
| FC(F)(F)c1cnc(N/N=C/c2ccncc2)c(Cl)c1 | > 30 µM (inactive) |
